Legend:
Type in all cases: functional
HL-60 = test: Cytotoxicity against human HL60 cells
SR = test: Cytotoxicity against human SR cells
HOP-92 = test: Cytotoxicity against human HOP92 cells
COLO 205 = test: Cytotoxicity against human COLO205 cells
HCT-116 = test: Cytotoxicity against human HCT116 cells
KM12 = test: Cytotoxicity against human KM12 cells
SF-295 = test: Cytotoxicity against human SF295 cells
SK-MEL-28 = test: Cytotoxicity against human SK-MEL-28 cells
UACC-62 = test: Cytotoxicity against human UACC62 cells
OVCAR-8 = test: Cytotoxicity against human OVCAR8 cells
CAKI-1 = test: Cytotoxicity against human Caki1 cells
MCF7 = test: Cytotoxicity against human MCF7 cells
[1] = Cytotoxicity against human MCF7/ADR cells; conditions: NCI/ADR-RES
T47D = test: Cytotoxicity against human T47D cells
PC-3 = test: Cytotoxicity against human PC3 cells
[2] = read-out: pLC50 (the source's name) (converted)

SMILES: C#C[C@H](O)/C=C/CCCCCCCCCC/C=C\CCCCCCC[C@H](O)C#CC#CC#CCO [TRIANGULYNE A]
- GI50 (HL-60): 0.0832 µM
- LC50 (HL-60): 25.1 µM
- TGI (HL-60; read-out: pTGI (converted)): 3.63 µM
- GI50 (SR): 0.182 µM
- LC50 (SR): 100 µM
- TGI (SR; read-out: pTGI (converted)): 3.24 µM
- GI50 (HOP-92): 0.324 µM
- CC50 (HOP-92; [2]): 15.1 µM
- TGI (HOP-92; read-out: pTGI (converted)): 1.2 µM
- GI50 (COLO 205): 0.2 µM
- LC50 (COLO 205): 2.29 µM
- TGI (COLO 205; read-out: pTGI (converted)): 0.417 µM
- GI50 (HCT-116): 0.129 µM
- LC50 (HCT-116): 3.47 µM
- TGI (HCT-116; read-out: pTGI (converted)): 0.661 µM
- GI50 (KM12): 0.17 µM
- LC50 (KM12): 1.1 µM
- TGI (KM12; read-out: pTGI (converted)): 0.38 µM
- GI50 (SF-295): 2.88 µM
- CC50 (SF-295; [2]): 51.3 µM
- TGI (SF-295; read-out: pTGI (converted)): 9.55 µM
- GI50 (SK-MEL-28): 0.708 µM
- CC50 (SK-MEL-28; [2]): 12 µM
- TGI (SK-MEL-28; read-out: pTGI (converted)): 2.29 µM
- GI50 (UACC-62): 0.229 µM
- CC50 (UACC-62; [2]): 9.12 µM
- TGI (UACC-62; read-out: pTGI (converted)): 0.646 µM
- GI50 (OVCAR-8): 0.129 µM
- CC50 (OVCAR-8; [2]): 21.9 µM
- TGI (OVCAR-8; read-out: pTGI (converted)): 0.851 µM
- GI50 (CAKI-1): 0.251 µM
- CC50 (CAKI-1; [2]): 3.39 µM
- TGI (CAKI-1; read-out: pTGI (converted)): 0.676 µM
- GI50 (MCF7): 1.58 µM
- CC50 (MCF7; [2]): 25.7 µM
- TGI (MCF7; read-out: pTGI (converted)): 6.03 µM
- GI50 [1]: 0.302 µM
- CC50 [1, 2]: 32.4 µM
- TGI ([1]; read-out: pTGI (converted)): 5.13 µM
- GI50 (T47D): 1.51 µM
- CC50 (T47D; [2]): 47.9 µM
- TGI (T47D; read-out: pTGI (converted)): 7.24 µM
- GI50 (PC-3): 0.191 µM
- CC50 (PC-3; [2]): 10 µM
- TGI (PC-3; read-out: pTGI (converted)): 1.1 µM
